According to patent US7259265B2, “Coumarin compounds and method for preparing and using the same” (Shanghai Institute of Organic Chemistry, Chinese Academy of …, priority 2003, dated 2007):
≈ marks a conversion by molar mass, not a printed value. Like-named read-outs stand apart in the source and are kept apart here.

Legend:
[1] = Comparison of liver toxicity, serum ALT/AST of ICR mice; assay type: in vivo; conditions: 1.6 g/kg oral, mean (values of each sample)
Description: ICR mice were orally administered with 4,4′-biisofraxidin or Fluoconazole at the same dosage of 1.6 g/kg, and blood samples were taken at 4 hours and 24 hours after the administration, and serum was separated from blood samples for testing liver indices of asparate aminotransferase test (AST) and alanine aminotransferase test (ALT).

[2] = test system: candida Albicans 01-1; experiment: In vitro drug sensitivity MIC test; assay type: cell-based
Description: (§1) The tested fungi were confected to a suspension with normal saline, and further diluted to a suspension with the turbidity of more than 2.0 McFarland Standards (McF). Then, the suspension was diluted 100 times with normal saline, and diluted 10 times with RPMI1640, and the sample was diluted 2 times, which was cultured for 72 to 96 hours at a 96-well culture dish while being gently agitated and assayed for photoelectric colorimetric assay at 490 nm.
(§2) Tested fungi include Saccharomyces, candida Albicans 01-5, 01-1, 02-6, candida Albicans CMCC, Aspergillus niger, Cryptococcus neoformans, Trichophyton rubrum, and Trichophyton verrucosum and MIC Results were listed at Table 2.

[3] = test system: candida Albicans 01-5; experiment: In vitro drug sensitivity MIC test; assay type: cell-based
Description: as §1, §2

[4] = test system: Trichophyton rubrum; experiment: In vitro drug sensitivity MIC test; assay type: cell-based
Description: as §1, §2

[5] = test system: candida Albicans CMCC; experiment: In vitro drug sensitivity MIC test; assay type: cell-based
Description: as §1, §2

[6] = test system: Aspergillus niger; experiment: In vitro drug sensitivity MIC test; assay type: cell-based
Description: as §1, §2

[7] = test system: Cryptococcus neoformans; experiment: In vitro drug sensitivity MIC test; assay type: cell-based
Description: as §1, §2

[8] = test system: candida Albicans; experiment: In vitro drug sensitivity MIC test; assay type: cell-based
Description: as §1, §2

[9] = test system: Trichophyton verrucosum; experiment: In vitro drug sensitivity MIC test; assay type: cell-based
Description: as §1, §2

[10] = test system: Saccharomyces; experiment: In vitro drug sensitivity MIC test; assay type: cell-based
Description: as §1, §2

[11] = test system: candida Albicans 02-6; experiment: In vitro drug sensitivity MIC test; assay type: cell-based
Description: as §1, §2

[12] = Acute toxicity test in vivo in mice (Example 21); conditions: for death: after testing 14 days, 14 mice (4,4′-biisofraxidin), 4 mice (Fluoroconazole)
[13] = Acute toxicity test, oral, ICR mice (Example 22); conditions: for mortality: single oral dose (5 g/kg for 4,4′-biisofraxidin)
From the text: Acute toxicity of 4,4′-biisofraxidin and Fluoconazole were simultaneously evaluated and the toxicity reaction and mortality were observed and compared for values of LD50 for ICR mice which were orally administered with 4,4′-biisofraxidin or Fluoconazole.

[14] = test system: candida Albicans 02-6; experiment: In vivo protective test in infected mice; conditions: for ED50: infection 2.07 × 10^4 CFU/ml; for Survival: 10 mice, within 7 days after infection
Description: 2˜3 monocolonies of selected tested fungus were inoculated in Sabouraud liquor culture medium, which was cultured for 18 hours at 37° C., and then it was diluted with 5% sterilized dried yeast liquor for next uses.
3. Healthy mice (lived in Kunming, China) weighed 18˜22 g were divided into groups randomly with 5 mice in each group. The fungal liquor 0.5 ml was injected into a mouse, which was observed continuously for 7 days after infection. Mortality of the mice was recorded, and the minimum fungal dose that caused the mice be with a 100% mortality was named as MLD, which also was regarded as infection fungal dose in vivo protective test.
All test drugs were confected to requested concentration with 0.5% CMC including Fluoroconazole and 4,4′-biisofraxidin.
Test mice were divided into groups randomly according to gender and weight, 5 males and 5 females in each group. The infection fungal liquor 0.5 ml was injected into each mouse at the abdominal region at 0.5 ml per mouse. Two hours prior to the infection and 4 hours after infection, mice were orally administered with Fluoroconazole or 4,4′-biisofraxidin by intragastric gavage at various concentration. The comparative group was tested at the same time. Mortality was recorded within 7 days after infection, and effective dosage at half (median effective dose, ED50) and 95% confidence limit were calculated by the Bliss's method. Fluoroconazole and 4,4′-biisofraxidin were tested on their in vivo protection activity on candida Albicans 02-6 infected mice, and ED50 was calculated by the Bliss's method at 95% confidence limit.

[15] = test system: S. Typhimurium TA97, TA98, TA 100, and TA102; experiment: Bacteria reverse mutation test; assay type: cell-based; conditions: without S9
Description: According to the conditions of mutation test in the Guide Compilation of New Medicament (Western Medicament) Before Clinic (Pharmacy, Pharmacology, and Toxicology) (Edition July 1993, Bureau of Pharmaceutical Policy, Chinese Department of Health), 4,4′-biisofraxidin was tested at a dosage of 5, 50, 500, 1000, and 5000 μg/dish in the system without S9.

[16] = test system: mice medulla polychromatic erythrocyte; experiment: Micronucleus test of mice medulla; assay type: in vivo, ICR mice
Description: Seventy ICR mice were randomly divided into 7 groups with 10 mice per group having 5 males and 5 females in each group. The maximum tolerance dose (MTD) of the mice was more than 5000 mg/kg for 4,4′-biisofraxidin by intragastric gavage, so that the maximum dosage was 5000 mg/kg. Four dosage groups were set up with dosage amount of 5000, 2500, 1250, and 625 mg/kg, one negative and one positive control group. The intragastric gavage was carried out at once per day consecutively for 2 days. Samples were taken at 24 hours after the last intragastric administration and inspected under microscope.

[17] = test system: CHL cell; experiment: Chromosome aberration test of CHL mammal cell; assay type: cell-based; conditions: for mutagenicity: 24 hours, -S9
Description: The purpose of the Example was to assess whether 4,4′-biisofraxidin caused the chromosome aberration of CHL cell. Firstly, Median Inhibitory Concentration (IC50) was obtained by general method and regarded as the maximum dosage. Then, the maximum dosage was diluted at 0.5 time at multiple times to get three dosage groups. The experiment was conducted at a —S9 system (without hamster liver S9 system). […] The antifungal compound was added to the cultured cell directly for 24 hours in order to observe whether 4,4′-biisofraxidin caused chromosome aberration in CHL cell. […] Therefore, 4,4′-biisofraxidin was a weak mutagen at a relatively high dosage under the test conditions.

[18] = test system: candida Albicans; experiment: Inhibiting zone on candida Albicans; assay type: cell-based; conditions: at the concentration of 10 μg/ml
Description: [drawing 30] was tested by Jiangsu Hengrui Pharmaceutical Co., Ltd. The bioactivity against fungal infection of various antibiotics were tested.

[19] = candida Albicans, second strain without code (r8)
[20] = drug dose 65.5 mg/kg, intragastric gavage
[21] = drug dose 89.2 mg/kg, intragastric gavage
[22] = drug dose 102.4 mg/kg, intragastric gavage
[23] = drug dose 128 mg/kg, intragastric gavage
[24] = drug dose 160 mg/kg, intragastric gavage
[25] = drug dose 200 mg/kg, intragastric gavage

OC(Cn1cncn1)(Cn1cncn1)c1ccc(F)cc1F [Fluoroconazole, reference compound]
ALT (U/L) ([1]; 4 hours after treatment): 84.5 (87, 82) U/L
AST (U/L) ([1]; 4 hours after treatment): 189.5 (155, 224) U/L
ALT (U/L) ([1]; 24 hours after treatment): 53.5 (40, 67) U/L
AST (U/L) ([1]; 24 hours after treatment): 99 (73, 125) U/L
MIC ([2]; Candida albicans): 128 µg/mL (≈ 418 µM)
MIC ([3]; Candida albicans): 128 µg/mL (≈ 418 µM)
MIC ([4]; read-out: MIC): 16 µg/mL (≈ 52.2 µM)
MIC ([5]; read-out: MIC): 64 µg/mL (≈ 209 µM)
MIC [6]: > 128 µg/mL
MIC ([7]; read-out: MIC): 16 µg/mL (≈ 52.2 µM)
MIC ([8]; Candida albicans): > 128 µg/mL
MIC [8, 19]: >128 µg/mL
MIC [9]: 128 µg/mL (≈ 418 µM)
MIC ([10]; read-out: MIC): 64 µg/mL (≈ 209 µM)
MIC ([11]; read-out: MIC): 64 µg/mL (≈ 209 µM)
LD50 at 14 days ([12]; ICR, mouse, in vivo, 1.6 g/kg): ~1600 mg/kg
death [12]: 2
toxicity relative to 4,4′-biisofraxidin ([12]; mouse, in vivo): three times larger
toxicity reaction ([13]; single oral dose): dispirited and inert
mortality [13]: 2/4
ED50 ([14]; Candida albicans, Bliss's method, intragastric gavage, read-out: ED50): 136 mg/kg
Survival rate (%) [14, 20]: 0%
Survival [14, 20]: 0
Survival rate (%) [14, 21]: 20%
Survival [14, 21]: 2
Survival rate (%) [14, 22]: 40%
Survival [14, 22]: 4
Survival rate (%) [14, 23]: 40%
Survival [14, 23]: 4
Survival rate (%) [14, 24]: 60%
Survival [14, 24]: 6
Survival rate (%) [14, 25]: 80%
Survival [14, 25]: 8

4,4′-biisofraxidin
effect on growth of bacteria ([15]; high dose 5000 μg/dish): inhibit the growth
gene mutation ([15]; other dosages): couldn't induce gene mutation
effect on growth of bacteria ([15]; other four doses (5, 50, 500, 1000 μg/dish)): no obvious effect
micronucleus number ([16]; 5000, 2500, 1250, 625 mg/kg, intragastric, once per day for 2 days, 24 hours after last dose): no effect on inducing increase in micronucleus number
maximum tolerance dose (MTD) ([16]; mice, intragastric gavage): more than 5000 mg/kg
Median Inhibitory Concentration (IC50) ([17]; CHL cell): 248 µg/mL
mutagenicity ([17]; high dosage 248 μg/ml): 12%
mutagenicity ([17]; low to medium dosage (62, 124 μg/ml)): 1%
chromosome aberration conclusion ([17]; relatively high dosage): weak mutagen
MIC ([2]; candida Albicans 01-1): 64 µg/mL
MIC ([3]; candida Albicans 01-5): 64 µg/mL
MIC [4]: 16 µg/mL
MIC [5]: >128 µg/mL
MIC [6]: 128 µg/mL
MIC [7]: 64 µg/mL
MIC ([8]; candida Albican, summary in the conclusion): ≥ 128 µg/mL
MIC ([8]; candida Albicans, first strain without code (r7)): 64 µg/mL
MIC [8, 19]: >128 µg/mL
MIC [9]: 128 µg/mL
MIC [10]: >128 µg/mL
MIC [11]: 32 µg/mL
inhibiting zone [18]: 10 mm
death [12]: no death
MTD ([12]; mice, 14 days): more than 5 g/kg
half lethal dose (LD50) ([12]; mice, 14 days): undetectable
toxicity reaction ([13]; single oral dose): no obvious toxicity reaction
mortality [13]: 0/10
MTD ([13]; single oral dose, 14 days observation): higher than 5 g/kg
95% confidence limit of ED50 ([14]; Bliss's method): (127.97–130.7) mg/kg
ED50 ([14]; Bliss's method, intragastric gavage): 149.50 mg/kg
Survival rate (%) [14, 20]: 0%
Survival [14, 20]: 0
Survival rate (%) [14, 21]: 10%
Survival [14, 21]: 1
Survival rate (%) [14, 22]: 20%
Survival [14, 22]: 3
Survival rate (%) [14, 23]: 40%
Survival [14, 23]: 4
Survival rate (%) [14, 24]: 60%
Survival [14, 24]: 6
Survival rate (%) [14, 25]: 70%
Survival [14, 25]: 7
protective effect in vivo ([14]; intragastric gavage): obvious protective effect
